Assay results published in patent publication US20250199015A1, “CYCLIN-DEPENDENT KINASE 2 INHIBITORS FOR MEDICAL TREATMENT” (INCYCLIX BIO, LLC, priority 2022, published 2025).

How the values were obtained:
COV318 cells = assay: Cell cycle by EdU flow cytometry; type: cell-based, human; conditions: 10 nM to 10 μM, 24 hours
Protocol: Cells were plated at 100,000 cells/well in Corning 6 cm tissue culture treated plates. […] Cells were collected and fixed in 1% paraformaldehyde. Cells were incubated with Alexa488 azide dye as described by Thermo Scientific. Cells were then incubated with […]-violet and RNase. Cells were analyzed on a BD Celesta and data compiled using FloJo and GraphPad.

MKN1 cells = assay: Cell cycle by EdU flow cytometry with washout; type: cell-based, human; conditions: 300 nM, 24 hr post-initial treatment (0 hr after washout)
Protocol: The MKN1 human stomach carcinoma cell line was grown in RPMI-1640/1× Glutamax/10% heat inactivated fetal bovine serum and was plated at 300,000 cells/well in 6 cm tissue culture treated plates. […] At 24 hours, the remaining plates were rinsed with media before un-treated media was added back. Cells were collected at the indicated times, with 10 μM EdU added for the last hour (FIG. 21A). Cells were collected and fixed in 1% paraformaldehyde. Cells were incubated with Pacific blue azide dye as described by Thermo Scientific. Cells were then incubated with FarRed dye and RNase. Cells were analyzed on a BD Celesta and data compiled using FloJo and GraphPad. Approximately 95% of MKN1 cells were arrested at G1 at 24 hr post-initial treatment (0 hr after washout) (FIG. 21B). […] At 48 hr post-washout, MKN1 cells were synchronized.

[1] = tested on: pRb (T821, 807/811), CCNE1 in OVCAR-3 cells; assay: Western blot pRb and cell cycle proteins; type: cell-based, human
Protocol: Cells were plated at 300,000 cells/well in Corning 6 cm tissue culture treated plates. […] Cells were collected by washing each well twice with cold PBS, then scraping cells in the presence of 75 μL cold RIPA with protease and phosphatase inhibitors. Lysates were clarified by centrifugation at 12,000×g for 15 min at 4° C. and supernatants transferred to clean tubes. A BCA assay was performed to determine the protein concentration of each lysate. A total of 25 μg of protein was mixed with sample buffer and reducing agent before being run on a 4-12% SDS-PAGE. Protein was transferred to a nitrocellulose membrane and blocked with LI-COR blocking buffer for 1 hour. Membranes were incubated overnight in primary antibody at 4° C. Following 3 washes with TBS-T, membranes were incubated for 60 minutes in LI-COR secondary antibodies. Following 3 washes in TBS-T, and one TBS wash, membranes were scanned using a LI-COR OdysseyCLx. Image studio was used for image analysis.
The OVCAR-3 human ovarian carcinoma cell line was grown in RPMI-1640/1× Glutamax/1× Insulin/10% fetal bovine serum and was plated at 300,000 cells/well in Corning 6 well tissue culture treated plates. Cells were incubated at 37° C. for 24 hours prior to addition of 2 replicates of 0.1% DMSO control and 1 replicate for each treatment. […] Cells were collected by washing each well twice with cold PBS, then scraping cells in the presence of 150 μL cold RIPA with protease and phosphatase inhibitors. Lysates were clarified by centrifugation at 14,000×g for 10 min at 4° C. and supernatants were transferred to clean tubes. A BCA assay was performed to determine the protein concentration of each lysate. A total of 30 μg of protein was mixed with sample buffer and reducing agent before being run on a 4-12% SDS-PAGE. Protein was transferred to a nitrocellulose membrane and blocked with LI-COR blocking buffer for 1 hour. Membranes were incubated overnight in primary antibody at 4° C. Following 3 washes with TBS-T, membranes were incubated for 45 minutes in LI-COR secondary antibodies. […]

SHP77 cells = assay: CellTiter Glo cell proliferation assay (single agent and chemotherapy combination); type: cell-based, human
Protocol: (§1) Plates returned to incubator for six additional days. On day six post dosing, plates were removed and treated with CellTiter Glo reagent following manufacturer's specifications. Plates incubated 45 minutes at room temperature and run on a Biotek luminometer with 1 sec/well detection. Results were converted to Microsoft Excel and transferred to GraphPad Prism for analysis.
(§2) Dose curves ranged from 300 pM to 10 μM in triplicate and treatments lasted for 6 days. Plates were removed from incubator at each specified timepoint and treated with CellTiter-Glo (Promega, Inc) following manufacturer specifications. Plates were then read on CLARIOstar luminometer with 1 sec/well integration.
(§3) Dose curves ranged from 300 pM to 10 μM in triplicate and treatments lasted for 6 days. Plates were removed from incubator at each specified timepoint and treated with CellTiter-Glo (Promega, Inc) following manufacturer specifications. Plates were then read on CLARIOstar luminometer with 1 sec/well integration. Results were converted to Microsoft Excel and transferred to GraphPad Prism for Analysis.

H69 (NCIH69) cells = assay: as above; type: cell-based, human
Protocol: as §1, §2, §3

SKOV3 cells = assay: CellTiter Glo cell proliferation assay; type: cell-based; conditions: lacking cyclin E amplification
Protocol: (§4) Plates were returned to the incubator for six additional days. On day six post dosing, plates were removed and treated with CellTiter Glo reagent following manufacturer's specifications. Plates were incubated 45 minutes at room temperature and run on Biotek luminometer with 1 sec/well detection. Results were converted to Microsoft Excel and transferred to Graphpad Prism for analysis. […] These cell types are distinguished by either gained of cyclin E1 expression or activation (Kuramochi) or intrinsic amplification of cyclin E1 (OVCAR-3, COV318).

PA-1 cells = assay: CellTiter Glo cell proliferation assay; type: cell-based; conditions: lacking cyclin E amplification
Protocol: as §4

[2] = 100 nM Compound I with camptothecin dose curve, 6 days

NS(=O)(=O)c1ccc(Nc2ncc3cc4n(c3n2)C2(CCCCC2)C(=O)NN4)cc1 [Compound I]
cell cycle distribution with increasing concentrations (COV318 cells): exit the S-phase and increasingly occupy the G0-G1 phase | cells arrested at G1 (MKN1 cells): Approximately 95% | pRb levels over time ([1]; 300 nM, 1-24 hours): time-dependent decrease in pRb levels | cyclin E1 (CCNE1) levels ([1]; 30-1000 nM, 24 hours): levels were increased | pRb levels ([1]; 30-1000 nM, 24 hours): dose-dependent decrease in pRb levels | cellular proliferation IC50, combined with camptothecin, versus single agents (SHP77 cells; [2]): comparable | inhibition compared with palbociclib (SHP77 cells; six days): low nanomolar concentrations | cellular proliferation IC50, combined with camptothecin, versus single agents (H69 (NCIH69) cells; [2]): lower IC50 value | inhibition compared with palbociclib (H69 (NCIH69) cells; six days): low nanomolar concentrations | inhibition compared with palbociclib (SKOV3 cells): comparable to palbociclib alone | inhibition compared with palbociclib (PA-1 cells): comparable to palbociclib alone
